Results: patent publication US20060035847A1, “Glucopyranosyloxyprazole derivatives and use thereof in medicines” (KISSEI PHARMACEUTICAL CO., LTD., priority 2000, published 2006)

Target: T1, human SGLT2 (Homo sapiens, UniProt P31639, I433V)
T1 construct: expressed in transfected cells; host or cells: COS-7 cells (RIKEN CELL BANK RCB0539), transient, electroporation
T1 sequence (P31639 1-672 I433V): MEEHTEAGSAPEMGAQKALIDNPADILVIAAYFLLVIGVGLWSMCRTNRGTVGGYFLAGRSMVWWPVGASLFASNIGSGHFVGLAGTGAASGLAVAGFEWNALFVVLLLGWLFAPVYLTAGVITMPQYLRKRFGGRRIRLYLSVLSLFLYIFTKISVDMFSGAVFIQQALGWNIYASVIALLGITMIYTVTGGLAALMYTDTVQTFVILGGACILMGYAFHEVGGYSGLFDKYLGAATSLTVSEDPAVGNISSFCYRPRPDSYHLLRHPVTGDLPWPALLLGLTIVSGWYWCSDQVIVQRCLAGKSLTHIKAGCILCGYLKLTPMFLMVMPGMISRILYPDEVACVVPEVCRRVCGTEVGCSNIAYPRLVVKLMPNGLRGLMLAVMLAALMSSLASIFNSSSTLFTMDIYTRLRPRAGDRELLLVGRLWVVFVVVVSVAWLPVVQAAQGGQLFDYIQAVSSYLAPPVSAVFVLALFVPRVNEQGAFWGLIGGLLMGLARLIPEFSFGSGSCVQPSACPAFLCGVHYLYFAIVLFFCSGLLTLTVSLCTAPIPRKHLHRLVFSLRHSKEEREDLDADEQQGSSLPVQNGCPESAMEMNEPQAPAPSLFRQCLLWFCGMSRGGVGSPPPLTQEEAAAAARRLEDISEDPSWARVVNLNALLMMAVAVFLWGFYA
Experiment: Assay for inhibitory effect on human SGLT2 activity (methyl-α-D-glucopyranoside uptake in COS-7 cells transiently expressing human SGLT2)
Type: cell-based
Settings: inhibition of methyl-α-D-glucopyranoside uptake, COS-7 cells expressing human SGLT2, 37° C., 2 hours
Description: Assay for Inhibitory Effect on Human SGLT2 Activity
1) Construction of the Plasmid Vector Expressing Human SGLT2
Preparation of the cDNA library for PCR amplification was performed by reverse transcription of a total RNA deprived from human kidney (Ori gene) with oligo dT as the primer, using SUPERSCRIPT Preamplification System (Gibco-BRL: LIFE TECHNOLOGIES). The DNA fragment coding for human SGLT2 was amplified by the PCR reaction, in which the human kidney cDNA library described above was used as the template and the following oligo nucleotides 0702F and 0712R, presented as sequence number 1 and 2 respectively, were used as the primers. The amplified DNA fragment was ligated into pCR-Blunt (Invitrogen), a vector for cloning, according to standard method of the kit. The Escherichia coli HB101 was transformed according to usual method and then selection of the transformants was performed on the LB agar medium containing 50 μg/mL of kanamycin. After plasmid DNA was extracted and purified from the one of the transformants, amplifying of the DNA fragment coding for human SGLT2 was performed by the PCR reaction, in which the following oligo nucleotides 0714F and 0715R, presented as sequence number 3 and 4 respectively, were used as the primers. The amplified DNA fragment was digested with restriction enzymes, Xho I and Hind III, and then purified with Wizard Purification System (Promega). This purified DNA fragment was inserted at into the corresponding restriction sites of pcDNA3.1 (−) Myc/His—B (Invitrogen), a vector for expressing of fusion protein. The Escherichia coli HB101 was transformed according to usual method and then selection of the transformant was performed on the LB agar medium containing 100 μg/mL of ampicillin. After plasmid DNA was extracted and purified from this transformant, the base sequence of the DNA fragment inserted at the multi-cloning sites of the vector pcDNA3.1 (−) Myc/His—B was analyzed. […] Sequentially, a clone in which valine is substituted for isoleucine-433 was obtained. This plasmid vector expressing human SGLT2 in which the peptide presented as sequence number 5 is fused to the carboxyl terminal alanine residue was designated KL29.
2) Preparation of the Cells Expressing Transiently Human SGLT2
KL29, the plasmid coding human SGLT2, was transfected into COS-7 cells (RIKEN CELL BANK RCB0539) by electroporation. Electroporation was performed with GENE PULSER II (Bio-Rad Laboratories) under the condition: 0.290 kV, 975 μF, 2×10^6 cells of COS-7 cell and 20 μg of KL29 in 500 μL of OPTI-MEM I medium (Gibco-BRL: LIFE TECHNOLOGIES) in the 0.4 cm type cuvette. After the gene transfer, the cells were harvested by centrifugation and resuspended with OPTI-MEM I medium (1 mL/cuvette). To each well in 96-wells plate, 125 μL of this cell suspension was added. After overnight culture at 37° C. under 5% CO2, 125 μL of DMEM medium which is containing 10% of fetal bovine serum (Sanko Jyunyaku), […] sodium penicillin G (Gibco-BRL: LIFE TECHNOLOGIES), 100 μg/mL streptomycin sulfate (Gibco-BRL: LIFE TECHNOLOGIES) was added to each well. These cells were cultured until the next day and then they were used for the measurement of the inhibitory activity against the uptake of methyl-α-D-glucopyranoside.
3) Measurement of the Inhibitory Activity Against the Uptake of methyl-α-D-glucopyranoside
After a test compounds was dissolved in dimethyl sulfoxide and diluted with the uptake buffer (a pH 7.4 buffer containing 140 mM sodium chloride, 2 mM potassium chloride, 1 mM calcium chloride, 1 mM magnesium chloride, 5 mM methyl-α-D-glucopyranoside, 10 mM 2-[4-(2-hydroxyethyl)-1-piperazinyl]ethane sulfonic acid and 5 mM tris(hydroxymethyl)aminomethane), each diluent was used as test sample for measurement of the inhibitory activity. […]

IC50 [nM]	SMILES
679	CSc1ccc(Cc2c(O[C@@H]3O[C@H](CO)[C@@H](O)[C@H](O)[C@H]3O)n[nH]c2C(F)(F)F)cc1 [Reference Example 48, 3-(β-D-Glucopyranosyloxy)-4-[(4-methylthiophenyl)methyl]-5-trifluoromethyl-1H-pyrazole]
835	CSc1ccc(Cc2c(O[C@@H]3O[C@H](CO)[C@@H](O)[C@H](O)[C@H]3O)nn(C)c2C(F)(F)F)cc1 [Reference Example 54, 3-(β-D-Glucopyranosyloxy)-1-methyl-4-[(4-methylthiophenyl)-methyl]-5-trifluoromethylpyrazole]
181	Cc1[nH]nc(O[C@@H]2O[C@H](CO)[C@@H](O)[C@H](O)[C@H]2O)c1Cc1ccc(OC(C)C)cc1 [Reference Example 37, 3-(β-D-Glucopyranosyloxy)-4-[(4-isopropoxyphenyl)methyl]-5-methyl-1H-pyrazole]
84	CSc1ccc(Cc2c(O[C@@H]3O[C@H](CO)[C@@H](O)[C@H](O)[C@H]3O)n[nH]c2C)cc1 [Reference Example 45, 3-(β-D-Glucopyranosyloxy)-5-methyl-4-[(4-methylthiophenyl)-methyl]-1H-pyrazole]
383	COc1ccc(Cc2c(O[C@@H]3O[C@H](CO)[C@@H](O)[C@H](O)[C@H]3O)n[nH]c2C)cc1 [Reference Example 51, 3-(β-D-Glucopyranosyloxy)-4-[(4-methoxyphenyl)methyl]-5-methyl-1H-pyrazole]
509	CCc1[nH]nc(O[C@@H]2O[C@H](CO)[C@@H](O)[C@H](O)[C@H]2O)c1Cc1ccc(SC)cc1 [Reference Example 46, 5-Ethyl-3-(β-D-glucopyranosyloxy)-4-[(4-methylthiophenyl)-methyl]-1H-pyrazole]
441	CCCc1ccc(Cc2c(O[C@@H]3O[C@H](CO)[C@@H](O)[C@H](O)[C@H]3O)n[nH]c2C)cc1 [Reference Example 38, 3-(β-D-Glucopyranosyloxy)-5-methyl-4-[(4-propylphenyl)-methyl]-1H-pyrazole]
280	Cc1ccc(Cc2c(O[C@@H]3O[C@H](CO)[C@@H](O)[C@H](O)[C@H]3O)n[nH]c2C)cc1 [Reference Example 57, 3-(β-D-Glucopyranosyloxy)-5-methyl-4-[(4-methylphenyl)-methyl]-1H-pyrazole]
190	CCc1ccc(Cc2c(O[C@@H]3O[C@H](CO)[C@@H](O)[C@H](O)[C@H]3O)n[nH]c2C)cc1 [Reference Example 58, 4-[(4-Ethylphenyl)methyl]-3-(β-D-glucopyranosyloxy)-5-methyl-1H-pyrazole]
441	Cc1[nH]nc(O[C@@H]2O[C@H](CO)[C@@H](O)[C@H](O)[C@H]2O)c1Cc1ccc(C(C)C)cc1 [Reference Example 47, 3-(β-D-Glucopyranosyloxy)-4-[(4-isopropylphenyl)methyl]-5-methyl-1H-pyrazole]
185	CCOc1ccc(Cc2c(O[C@@H]3O[C@H](CO)[C@@H](O)[C@H](O)[C@H]3O)n[nH]c2C)cc1 [Reference Example 41, 4-[(4-Ethoxyphenyl)methyl]-3-(β-D-glucopyranosyloxy)-5-methyl-1H-pyrazole]
415	COc1ccc(Cc2c(O[C@@H]3O[C@H](CO)[C@@H](O)[C@H](O)[C@H]3O)n[nH]c2C(F)(F)F)cc1 [Reference Example 50, 3-(β-D-Glucopyranosyloxy)-4-[(4-methoxyphenyl)methyl]-5-trifluoromethyl-1H-pyrazole]
702	CCCOc1ccc(Cc2c(O[C@@H]3O[C@H](CO)[C@@H](O)[C@H](O)[C@H]3O)n[nH]c2C)cc1 [Reference Example 40, 3-(β-D-Glucopyranosyloxy)-5-methyl-4-[(4-propoxyphenyl)-methyl]-1H-pyrazole]
369	Cc1c(Cc2ccc(OC(C)C)cc2)c(O[C@@H]2O[C@H](CO)[C@@H](O)[C@H](O)[C@H]2O)nn1C(C)C [Reference Example 72, 3-(β-D-Glucopyranosyloxy)-4-[(4-isopropoxyphenyl)methyl]-1-isopropyl-5-methylpyrazole]
634	CCc1ccc(Cc2c(O[C@@H]3O[C@H](CO)[C@@H](O)[C@H](O)[C@H]3O)n[nH]c2C(F)(F)F)cc1 [Reference Example 60, 4-[(4-Ethylphenyl)methyl]-3-(β-D-glucopyranosyloxy)-5-trifluoromethyl-1H-pyrazole]
